In patent US20110200535A1, “DAA-PYRIDINE AS PERIPHERAL BENZODIAZEPINE RECEPTOR LIGAND FOR DIAGNOSTIC IMAGING AND PHARMACEUTICAL TREATMENT” (BAYER SCHERING PHARMA AKTIENGESELLSCHAFT, priority 2008, published 2011):
Values joined by “and” are separate entries in the source; they are usually repeats but may differ in a detail not shown here. Equal values may be shown once.

What was measured:
Type in all cases: in vivo
[1] = Excretion of [^18F]-radioactivity via urine and faeces in normal mice (gamma counter); conditions: i.v., decay corrected
Method: (§1) The biodistribution of [^18F]-2d and [^18F]-5d was investigated in healthy male NMRI mice (28.3-35.6 g body weight, n=3 animals per time point) at 2, 5, 30, 60 and 180/240 min after intravenous injection of 0.264 MBq [^18F]-2d and 0.268 MBq [^18F]-5d per animal, respectively. Until the indicated time points urine and faeces were quantitatively collected. At the respective time points the mice were sacrificed and the tissues were removed. [^18F]-radioactivity was analyzed in a gamma counter (Tab. 1.1, 2.1 and 1.2, 2.2).

[2] = Biodistribution of [^18F]-radioactivity in healthy male NMRI mice after intravenous injection (gamma counter); conditions: for [^18F]-radioactivity in adrenals / [^18F]-radioactivity in blood / [^18F]-radioactivity in bone / [^18F]-radioactivity in brain (brain uptake) / [^18F]-radioactivity in fat / [^18F]-radioactivity in heart / [^18F]-radioactivity in intestine / [^18F]-radioactivity in kidney / [^18F]-radioactivity in liver / [^18F]-radioactivity in lung / [^18F]-radioactivity in muscle / [^18F]-radioactivity in pancreas / [^18F]-radioactivity in skin / [^18F]-radioactivity in spleen / [^18F]-radioactivity in stomach / [^18F]-radioactivity in testes / [^18F]-radioactivity in thyroid: normal mice, i.v., decay corrected
Method: as §1

[3] = biological target: T1, peripheral benzodiazepine receptor (PBR) (Rattus norvegicus, UniProt P16257); experiment: Ex vivo autoradiography of brain sections, rat kainic acid induced epilepsy model
T1 construct: from tissue; host or cells: rat brain (hippocampus, cerebellum) after i.v. tracer injection
Method: Using a rat kainic acid induced epilepsy model and respective sham controls the accumulation of [^18F]-2d and [^18F]-5d was visualized ex vivo. In brief, epilepsy was induced in rats by injecting kainic acid i.p. At day eight after the start of the kainic acid treatment [^18F]-2d and [^18F]-5d were injected into the tail vein of the rats and their sham treated controls (PBS instead of kainic acid) at a dose of 25.8-35.8 MBq (approximately 1.0 μg) per rat. Thirty minutes after intravenous injection the rats were sacrificed, the brains were taken out, snap frozen and sliced transversally in a cryostat. The slices were exposed to PhosphoImager plates over night. The resulting autoradiographic signals were analyzed qualitatively and quantitatively (FIG. 2.1 A and C, 2.2 A and C). […] To determine the specificity of the [^18F]-2d and [^18F]-5d binding, kainic acid treated rats were co-injected with [^19F]-2e and [^19F]-5e, respectively.
The autoradiographic signals were quantified. The signal intensity in a hippocampal region of interest (ROI) was measured and compared to a ROI in the cerebellum, that was used as reference region.

- Excretion of [^18F]-radioactivity via faeces ([1]; 2 min): 0.00 ± 0.00 % injected dose
- Excretion of [^18F]-radioactivity via urine ([1]; 2 min): 0.02 ± 0.01 % injected dose
- Excretion of [^18F]-radioactivity via faeces ([1]; 5 min): 0.02 ± 0.03 % injected dose
- Excretion of [^18F]-radioactivity via urine ([1]; 5 min): 0.02 ± 0.01 % injected dose
- Excretion of [^18F]-radioactivity via faeces ([1]; 30 min): 0.01 ± 0.00 % injected dose
- Excretion of [^18F]-radioactivity via urine ([1]; 30 min): 1.72 ± 0.08 % injected dose
- Excretion of [^18F]-radioactivity via faeces ([1]; 60 min): 0.03 ± 0.03 % injected dose
- Excretion of [^18F]-radioactivity via urine ([1]; 60 min): 4.21 ± 0.39 % injected dose
- Excretion of [^18F]-radioactivity via faeces ([1]; 180 min): 0.59±0.61 % injected dose
- Excretion of [^18F]-radioactivity via urine ([1]; 180 min): 13.09±1.33 % injected dose
- Initial elimination of the radioactivity from the brain ([2]; mice, 30 min p.i.): ca. 72%
- Elimination from mouse brain, 2 min/30 min ratio of brain uptake (% ID/g) ([2]; mice, brain, 2 min to 30 min): 3.7
- [^18F]-radioactivity in adrenals ([2]; 2 min): 7.37 ± 2.53 % injected dose/g
- [^18F]-radioactivity in blood ([2]; 2 min): 2.35 ± 0.15 % injected dose/g
- [^18F]-radioactivity in bone ([2]; 2 min): 0.87 ± 0.11 % injected dose/g
- [^18F]-radioactivity in brain (brain uptake) ([2]; 2 min): 1.37±0.04 % injected dose/g
- [^18F]-radioactivity in fat ([2]; 2 min): 0.41 ± 0.49 % injected dose/g
- [^18F]-radioactivity in heart ([2]; 2 min): 16.53 ± 0.48 % injected dose/g
- [^18F]-radioactivity in intestine ([2]; 2 min): 0.82 ± 0.04 % injected dose/g
- [^18F]-radioactivity in kidney ([2]; 2 min): 5.92 ± 1.40 % injected dose/g
- [^18F]-radioactivity in liver ([2]; 2 min): 1.20 ± 0.28 % injected dose/g
- [^18F]-radioactivity in lung ([2]; 2 min): 61.50 ± 10.42 % injected dose/g
- [^18F]-radioactivity in muscle ([2]; 2 min): 1.23 ± 0.47 % injected dose/g
- [^18F]-radioactivity in pancreas ([2]; 2 min): 1.91 ± 0.33 % injected dose/g
- [^18F]-radioactivity in skin ([2]; 2 min): 0.51 ± 0.14 % injected dose/g
- [^18F]-radioactivity in spleen ([2]; 2 min): 1.50 ± 0.20 % injected dose/g
- [^18F]-radioactivity in stomach ([2]; 2 min): 2.15 ± 1.25 % injected dose/g
- [^18F]-radioactivity in testes ([2]; 2 min): 0.48 ± 0.10 % injected dose/g
- [^18F]-radioactivity in thyroid ([2]; 2 min): 2.15 ± 1.49 % injected dose/g
- [^18F]-radioactivity in adrenals ([2]; 5 min): 10.39 ± 3.44 % injected dose/g
- [^18F]-radioactivity in blood ([2]; 5 min): 1.44 ± 0.07 % injected dose/g
- [^18F]-radioactivity in bone ([2]; 5 min): 1.30 ± 0.02 % injected dose/g
- [^18F]-radioactivity in brain (brain uptake) ([2]; 5 min): 0.95 ± 0.07 % injected dose/g
- [^18F]-radioactivity in fat ([2]; 5 min): 0.25 ± 0.06 % injected dose/g
- [^18F]-radioactivity in heart ([2]; 5 min): 17.09 ± 0.64 % injected dose/g
- [^18F]-radioactivity in intestine ([2]; 5 min): 1.36 ± 0.33 % injected dose/g
- [^18F]-radioactivity in kidney ([2]; 5 min): 7.45 ± 1.00 % injected dose/g
- [^18F]-radioactivity in liver ([2]; 5 min): 1.41 ± 0.26 % injected dose/g
- [^18F]-radioactivity in lung ([2]; 5 min): 34.75 ± 6.56 % injected dose/g
- [^18F]-radioactivity in muscle ([2]; 5 min): 1.58 ± 0.52 % injected dose/g
- [^18F]-radioactivity in pancreas ([2]; 5 min): 2.23 ± 0.60 % injected dose/g
- [^18F]-radioactivity in skin ([2]; 5 min): 0.60 ± 0.11 % injected dose/g
- [^18F]-radioactivity in spleen ([2]; 5 min): 4.78 ± 0.73 % injected dose/g
- [^18F]-radioactivity in stomach ([2]; 5 min): 1.89 ± 1.77 % injected dose/g
- [^18F]-radioactivity in testes ([2]; 5 min): 0.50 ± 0.15 % injected dose/g
- [^18F]-radioactivity in thyroid ([2]; 5 min): 2.65 ± 0.58 % injected dose/g
- [^18F]-radioactivity in adrenals ([2]; 30 min): 15.51 ± 0.48 % injected dose/g
- [^18F]-radioactivity in blood ([2]; 30 min): 0.70 ± 0.14 % injected dose/g
- [^18F]-radioactivity in bone ([2]; 30 min): 1.67 ± 0.32 % injected dose/g
- [^18F]-radioactivity in brain (brain uptake) ([2]; 30 min): 0.37±0.04 % injected dose/g
- [^18F]-radioactivity in fat ([2]; 30 min): 0.46 ± 0.10 % injected dose/g
- [^18F]-radioactivity in heart ([2]; 30 min): 7.94 ± 1.52 % injected dose/g
- [^18F]-radioactivity in intestine ([2]; 30 min): 2.15 ± 0.62 % injected dose/g
- [^18F]-radioactivity in kidney ([2]; 30 min): 10.99 ± 1.08 % injected dose/g
- [^18F]-radioactivity in liver ([2]; 30 min): 1.61 ± 0.43 % injected dose/g
- [^18F]-radioactivity in lung ([2]; 30 min): 10.66 ± 0.71 % injected dose/g
- [^18F]-radioactivity in muscle ([2]; 30 min): 1.80 ± 0.17 % injected dose/g
- [^18F]-radioactivity in pancreas ([2]; 30 min): 2.85 ± 0.03 % injected dose/g
- [^18F]-radioactivity in skin ([2]; 30 min): 0.98 ± 0.06 % injected dose/g
- [^18F]-radioactivity in spleen ([2]; 30 min): 6.98 ± 0.82 % injected dose/g
- [^18F]-radioactivity in stomach ([2]; 30 min): 3.49 ± 0.45 % injected dose/g
- [^18F]-radioactivity in testes ([2]; 30 min): 0.79 ± 0.11 % injected dose/g
- [^18F]-radioactivity in thyroid ([2]; 30 min): 3.95 ± 0.81 % injected dose/g
- [^18F]-radioactivity in adrenals ([2]; 60 min): 23.01 ± 8.20 % injected dose/g
- [^18F]-radioactivity in blood ([2]; 60 min): 0.60 ± 0.09 % injected dose/g
- [^18F]-radioactivity in bone ([2]; 60 min): 1.75 ± 0.09 % injected dose/g
- [^18F]-radioactivity in brain (brain uptake) ([2]; 60 min): 0.34 ± 0.02 % injected dose/g
- [^18F]-radioactivity in fat ([2]; 60 min): 0.49 ± 0.06 % injected dose/g
- [^18F]-radioactivity in heart ([2]; 60 min): 5.22 ± 0.61 % injected dose/g
- [^18F]-radioactivity in intestine ([2]; 60 min): 2.33 ± 0.34 % injected dose/g
- [^18F]-radioactivity in kidney ([2]; 60 min): 11.04 ± 0.48 % injected dose/g
- [^18F]-radioactivity in liver ([2]; 60 min): 1.56 ± 0.22 % injected dose/g
- [^18F]-radioactivity in lung ([2]; 60 min): 6.31 ± 0.34 % injected dose/g
- [^18F]-radioactivity in muscle ([2]; 60 min): 2.34 ± 0.23 % injected dose/g
- [^18F]-radioactivity in pancreas ([2]; 60 min): 2.56 ± 0.26 % injected dose/g
- [^18F]-radioactivity in skin ([2]; 60 min): 1.14 ± 0.06 % injected dose/g
- [^18F]-radioactivity in spleen ([2]; 60 min): 6.09 ± 0.50 % injected dose/g
- [^18F]-radioactivity in stomach ([2]; 60 min): 4.37 ± 0.51 % injected dose/g
- [^18F]-radioactivity in testes ([2]; 60 min): 0.84 ± 0.09 % injected dose/g
- [^18F]-radioactivity in thyroid ([2]; 60 min): 3.88 ± 0.10 % injected dose/g
- [^18F]-radioactivity in adrenals ([2]; 180 min): 13.74 ± 7.36 % injected dose/g
- [^18F]-radioactivity in blood ([2]; 180 min): 0.66 ± 0.09 % injected dose/g
- [^18F]-radioactivity in brain (brain uptake) ([2]; 180 min): 0.35 ± 0.02 % injected dose/g
- [^18F]-radioactivity in fat ([2]; 180 min): 2.02 ± 1.06 % injected dose/g
- [^18F]-radioactivity in heart ([2]; 180 min): 2.78 ± 0.18 % injected dose/g
- [^18F]-radioactivity in intestine ([2]; 180 min): 4.28 ± 0.94 % injected dose/g
- [^18F]-radioactivity in kidney ([2]; 180 min): 10.63 ± 1.41 % injected dose/g
- [^18F]-radioactivity in liver ([2]; 180 min): 1.29 ± 0.20 % injected dose/g
- [^18F]-radioactivity in lung ([2]; 180 min): 4.57 ± 1.44 % injected dose/g
- [^18F]-radioactivity in muscle ([2]; 180 min): 1.84 ± 0.29 % injected dose/g
- [^18F]-radioactivity in pancreas ([2]; 180 min): 1.76 ± 0.40 % injected dose/g
- [^18F]-radioactivity in skin ([2]; 180 min): 1.60 ± 0.19 % injected dose/g
- [^18F]-radioactivity in spleen ([2]; 180 min): 4.07 ± 0.51 % injected dose/g
- [^18F]-radioactivity in stomach ([2]; 180 min): 4.37 ± 0.68 % injected dose/g
- [^18F]-radioactivity in testes ([2]; 180 min): 1.14 ± 0.11 % injected dose/g
- [^18F]-radioactivity in thyroid ([2]; 180 min): 3.91 ± 0.75 % injected dose/g
- Hipp/Cereb ratio (signal-to-background ratio, hippocampus/cerebellum) ([3]; rat kainic acid model, 30 min ex vivo autoradiography): 5.6 ± 1.8
Structure (SMILES): COc1ccc(Oc2ncccc2N(Cc2cc(OC)ccc2OCC[18F])C(C)=O)cc1 [[^18F]-2d, N-[2-(2-[^18F]fluoroethoxy)-5-methoxybenzyl]-N-[2-(4-methoxyphenoxy)pyridin-3-yl]acetamide]
- [^18F]-radioactivity in bone ([2]; 180 min): 2.3 % injected dose/g and 2.25 ± 0.20 % injected dose/g
- Specificity of binding: autoradiographic signal on co-injection of the corresponding [^19F] compound ([3]; kainic acid treated rats, co-injected with [^19F]-2e and [^19F]-5e, respectively): significantly reduced autoradiographic signal
